The species entered for series [1] is Rattus norvegicus. Put plainly: compound was evaluated for GH release in the rat. The series is classed as functional, organism-based.
The nature of series [2]: Compound was evaluated for the systemic clearance rate in rats. The series is classed as ADME, organism-based. The conditions noted are these: rat, in vivo; read-out: Clearance rate.
Series [3] can be described thus: Compound was evaluated for the half-life in rats. The conditions noted are these: rat, in vivo. The class given is ADME, organism-based.

Structures are written as SMILES. Where a SMILES comes first, the peptide text is derived from it. [ ]: non-standard residue; d: D form. d2Nal = N[C@H](Cc1ccc2ccccc2c1)C(=O)O

`C[C@H](NC(=O)[C@@H](Cc1ccc2ccccc2c1)NC(=O)[C@@H](C)N)C(=O)N[C@@H](Cc1c[nH]c2ccccc12)C(=O)N[C@H](Cc1ccccc1)C(=O)N[C@@H](CCCCN)C(N)=O` [PRALMORELIN] (H-[dA][d2Nal]AW[dF]K-NH2) gave an EC50 in series [1] of 3 nM. In addition, the clearance in series [2] is 23 mL/min/kg. In series [3], this compound showed a half-life of 9 min.

One may read the EC50 as the concentration at which the effect is half-maximal. Lower therefore signals higher potency in that assay. A word on the clearance: it is the volume of plasma or blood freed of the substance per unit of time. One may read the half-life as how long it takes for the measured level to halve. Read a high half-life as slow loss.

The record behind these values is ChEMBL document CHEMBL1131057, “Peptidomimetic growth hormone secretagogues. Design considerations and therapeutic potential” (J Med Chem, 1998).
